Among the data in patent publication US7557211B2, “8H-imidazo[4,5-D]thiazolo[4,5-B]pyridine based tricyclic compounds and pharmaceutical compositions comprising same” (Bristol-Myers Squibb Company, priority 2004, dated 2009) are Ames testing values, retold here.

For this series, the system named is T98. In words: Ames testing. It counts as cell-based. To be noted: T98 with S9 activation. Here is the method:
A60.7 (370 mg) was dissolved in trifluoroacetic acid and stirred at 50° C. for 2h and 45 min. then at 60° C. for 2 h, then overnight at room temperature. The solvent was removed under reduced pressure and co-evaporated with diethyl ether (2×). Ether (˜20 mL) was added and the mixture sonicated for 1 min. The crude product was collected by filtration and rinsed with an additional portion of ether and dried under vacuum to yield 130 mg of a pale yellow solid. The crude product was washed with several portions of saturated aqueous sodium bicarbonate then water and dried under vacuum. The crude product was purified by automated reverse phase HPLC. The appropriate fractions were combined and azeotroped with heptane to produce 43 mg of a pale yellow solid. The solid was treated with a few milliliters of saturated aqueous sodium bicarbonate solution rinsed with water and dried under vacuum over phosphorus pentoxide and subsequently rinsed with several portions of diethyl ether and dried to yield 36 mg of the desired product. (Caution: This material was subjected to Ames testing and found to be positive in T98 with S9 activation. Suitable precautions should be taken in handling this material) 1H NMR 400 MHz d^6DMSO δ: 8.26 s, 1H, 8.14-8.07 m, 2H, 7.62-7.53, m, 3H, 6.90-6.80, br s, 2H, 4.02, s, 3H.
(The Ames test uses bacterial strains that need an amino acid and regain growth without it when mutated back.)

For `Cn1cnc2c(N)nc3nc(-c4ccccc4)sc3c21` [Example A60, 8-methyl-2-phenyl-8H-imidazo[4,5-d]thiazolo[4,5-b]pyridin-5-amine], the Ames testing result is “positive”.
